In patent US8410053B2, “Methods for treating autoimmune disorders, and reagents related thereto” (Trustees of Tufts College, priority 2001, dated 2013):

What was measured:
DP-IV = DP-IV (Homo sapiens, UniProt P27487); assay: Inhibition / affinity for DP-IV; assay type: biochemical
DPIV = biological target: T1, DPIV (Rattus norvegicus, UniProt P14740); assay: DPIV assays on serum samples from rats; assay type: in vivo; conditions: rat serum 1 hour after treatment; Ala-Pro-paranitroanalide substrate, pH 8
T1 construct: from tissue; host or cells: rat serum
T1 sequence (P14740 38-767 limits assumed): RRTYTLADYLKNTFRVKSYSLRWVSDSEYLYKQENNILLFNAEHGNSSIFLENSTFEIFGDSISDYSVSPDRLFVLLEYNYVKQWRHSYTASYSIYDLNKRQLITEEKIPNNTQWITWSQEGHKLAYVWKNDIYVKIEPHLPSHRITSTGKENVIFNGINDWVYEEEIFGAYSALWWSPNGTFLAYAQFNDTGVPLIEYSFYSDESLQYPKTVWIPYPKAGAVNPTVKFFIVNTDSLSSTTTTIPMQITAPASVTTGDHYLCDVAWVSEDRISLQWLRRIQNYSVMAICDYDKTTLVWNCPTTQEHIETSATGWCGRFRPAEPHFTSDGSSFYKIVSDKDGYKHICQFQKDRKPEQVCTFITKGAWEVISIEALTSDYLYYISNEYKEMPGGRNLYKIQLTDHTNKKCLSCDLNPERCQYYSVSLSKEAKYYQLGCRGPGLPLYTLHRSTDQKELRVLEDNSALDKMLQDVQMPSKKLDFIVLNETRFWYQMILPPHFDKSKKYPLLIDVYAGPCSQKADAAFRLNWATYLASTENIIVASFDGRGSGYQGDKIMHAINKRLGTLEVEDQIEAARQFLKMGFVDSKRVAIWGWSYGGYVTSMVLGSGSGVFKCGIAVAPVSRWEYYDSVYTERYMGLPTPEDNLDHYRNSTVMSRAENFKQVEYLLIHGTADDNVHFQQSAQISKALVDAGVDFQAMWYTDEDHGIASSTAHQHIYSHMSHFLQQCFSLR
Description: Four rats were used in this experiment: two females (#3 and #9) and two males (#10 and #11). Blood and plasma samples were collected from rats 1 hour after being treated with Cyclohexylglycine-boroAla. The collected serum samples were evaluated for DPPIV activity of Cyclohexylglycine-boroAla as follows: • 1. 2 mg of Ala-Pro-paranitroanalide (substrate) was dissolved in 20 ml 0.1 M HEPES pH 8, 0.14 M NaCl (buffer). • 2. Serum samples were diluted into substrate solution in the wells of a microtiter plate. For each sample, 10 uL of serum was diluted into 150 μL of substrate. • 3. A reading of the A410 in each well was recorded immediately after the dilution of serum into substrate, and again after approximately 1 hour. The time of data acquisition for each reading is recorded in the data file by the microplate reader software.
The rate of absorbance change was obtained by subtracting the first reading from the second and dividing by the reaction time to give DeltaA410/hr. The DPIV activity was plotted in units of DeltaA410 hr^−1μ^−1.

[1] = In vivo regulation of glucose metabolism
NOD mice = assay: Incidence of diabetes in NOD mice upon treatment with DPIV inhibitors; assay type: in vivo
Description: The experiment was started on 8-10 week old NOD mice. The mice were kept under VAF/SPF conditions and fed everyday with either Val-boro-Pro (0.034 mg/kg) or Cyclohexyl-boro-Ala (0.34 mg/kg) for 60 days and then observed for the development of spontaneous diabetes. The mice were tested for the excretion of sugar in urine and considered positive for diabetes when sugar was detected in the urine.

[2] = in vivo, cited from earlier work
[3] = chronic (>5 days) treatment, alone

DP-IV, sequence (P27487 whole entry): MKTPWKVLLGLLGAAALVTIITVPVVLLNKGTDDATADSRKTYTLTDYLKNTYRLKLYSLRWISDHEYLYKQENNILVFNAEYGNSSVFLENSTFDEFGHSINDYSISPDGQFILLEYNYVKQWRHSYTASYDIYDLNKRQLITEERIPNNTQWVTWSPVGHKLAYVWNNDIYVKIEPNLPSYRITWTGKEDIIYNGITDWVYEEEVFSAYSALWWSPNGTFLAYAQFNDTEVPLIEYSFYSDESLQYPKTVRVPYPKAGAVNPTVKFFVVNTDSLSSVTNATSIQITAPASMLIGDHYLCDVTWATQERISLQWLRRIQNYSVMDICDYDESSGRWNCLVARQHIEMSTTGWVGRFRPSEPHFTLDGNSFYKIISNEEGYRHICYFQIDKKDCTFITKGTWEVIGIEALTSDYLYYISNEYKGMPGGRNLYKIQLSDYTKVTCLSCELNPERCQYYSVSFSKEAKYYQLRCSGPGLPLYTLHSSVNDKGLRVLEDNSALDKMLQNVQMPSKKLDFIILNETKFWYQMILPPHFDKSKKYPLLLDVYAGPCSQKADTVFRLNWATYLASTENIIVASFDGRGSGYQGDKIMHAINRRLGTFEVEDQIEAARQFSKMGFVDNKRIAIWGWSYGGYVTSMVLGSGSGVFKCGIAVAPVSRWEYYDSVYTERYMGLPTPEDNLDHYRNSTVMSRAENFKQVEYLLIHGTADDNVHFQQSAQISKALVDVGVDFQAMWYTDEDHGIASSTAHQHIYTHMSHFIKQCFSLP

CC(NC(=O)OC(C)(C)C)C(=O)N1CCCC1B(O)O (stereo not drawn) [Boc-blocked Ala-boroPro, Boc-Ala-boroPro]
affinity for DP-IV (DP-IV): no affinity

CC(NC(=O)C(N)C1CCCCC1)B(O)O (stereo not drawn) [Cyclohexylglycine-boroAla]
DPIV enzyme activity in serum (DPIV): significantly decreased

O=C(C1CCCN1)N1CCCC1B(O)O (stereo not drawn) [Pro-boro-Pro]
fasting blood sugars [1, 3]: lowers
glycemic excursion to oral glucose challenge [1, 3]: lowers
response to a subtherapeutic dose of GLP-1 ([1]; single injection): potentiate the response
glucose control ([1]; single injection, alone): alone sufficient to improve glucose control

CC(C)[C@H](N)C(=O)N1CCC[C@H]1B(O)O [Val-boro-Pro]
recovery of mice that showed signs of diabetes (NOD mice; 0.034 mg/kg fed every day for 60 days): some of the mice that showed signs of diabetes got better and recovered
incidence of Diabetes (NOD mice; 0.034 mg/kg fed every day for 60 days, end of the experiment): low incidence of Diabetes
general health compared to the other groups (NOD mice; end of the experiment): generally good health

L-Ala-L-boroPro-pinacol
extent of DP-IV inhibition, silica gel fractions compared (DP-IV; early fraction vs later fractions at equal concentrations): inhibits DP-IV to a greater extent than later fractions

glucagon-like peptide-1 [GLP-1]
degradation ([2]; iv): extensively degraded
degradation without inhibitor ([2]; sc): rapidly degraded in a time-dependent manner
